Legend:
Format in all cases: physicochemical
[1] = Hygroscopicity observation
Excerpt: Apart from the conventional formulation that are described the Ceftiofur sodium formulation may also contain chelating agent like ethylene diamine tetraacetic acid (EDTA) or a buffer like sodium citrate along with or with out conventional excipient. The pharmaceutical composition may also contain amorphous Ceftiofur sodium along with crystalline Ceftiofur sodium.

[2] = Comparison of physical characteristics: tapped bulk density
Excerpt: The following Table provides a comparison of physical characteristics of amorphous and crystalline Ceftiofur Sodium. From this table it is evident that the crystalline Ceftiofur Sodium has better physical characteristics than amorphous material. [table]

[3] = Stability at 40 ± 2° C. & 75 ± 5% RH; conditions: for Assay: in % (unit assumed)
Excerpt: (§1) The following Tables (Table 2 & 3) provide stability data of crystalline Ceftiofur Sodium prepared according to this invention. From this it table it is evident that the crystalline Ceftiofur Sodium prepared according this invention is a very stable and a highly pure material, which is clearly indicated by total RS (Related substances) analysis & the stability data. [table]

[4] = Stability at 25 ± 2° C. & 60 ± 5% RH; conditions: for Assay: in % (unit assumed)
Excerpt: as §1

Row | SMILES | Hygroscopic nature [1] | Tapped Bulk density [2] [g/mL] | Total RS (Related substances) ([3]; 2 month) [%] | Assay ([3]; 2 month) | Total RS (Related substances) ([3]; 15 days) [%] | Assay ([3]; 15 days) | Total RS (Related substances) ([3]; Initial) [%] | Assay ([3]; Initial) | Total RS (Related substances) ([4]; 1 month) [%] | Assay ([4]; 1 month) | Total RS (Related substances) ([4]; 2 month) [%] | Assay ([4]; 2 month) | Total RS (Related substances) ([4]; Initial) [%] | Assay ([4]; Initial)
1 | CO/N=C(\C(=O)N[C@@H]1C(=O)N2C(C(=O)[O-])=C(CSC(=O)c3ccco3)CS[C@H]12)c1csc(N)n1.[Na+] [Ceftiofur sodium] | non-hygroscopic | – | – | – | – | – | – | – | – | – | – | – | – | –
2 | CO/N=C(\C(=O)NC1C(=O)N2C(C(=O)[O-])=C(CSC(=O)c3ccco3)CSC12)c1csc(N)n1.[Na+] (centres unmarked) [Amorphous Ceftiofur sodium, Ceftiofur sodium, reference compound] | highly hygroscopic | 0.5 | – | – | – | – | – | – | – | – | – | – | – | –
3 | CO/N=C(\C(=O)NC1C(=O)N2C(C(=O)[O-])=C(CSC(=O)c3ccco3)CSC12)c1csc(N)n1.[Na+] (centres unmarked) [Crystalline Ceftiofur sodium, Ceftiofur sodium] | non-hygroscopic | 0.8 | 0.93 | 100.61 | 0.78 | 100.64 | 0.61 | 101.25 | 0.75 | 101.18 | 0.78 | 100.31 | 0.61 | 101.25
